Experimental data as given in patent publication US6774123B1, “Methods and compositions for inactivating viruses” (priority 1998, dated 2004).

Columns and labels:
[1] = test system: Porcine Parvovirus (PPV); assay: Inactivation of porcine parvovirus (PPV), TCID50 titer on PT-1 cells; type: cell-based; conditions: dropped from 7.1 logs, 3 hours, room temperature, dimer 0.1%, detergent = 1% Tween 80, 0.3% TNBP (FIG. 3)
Description: PPV is a non-enveloped virus; it is known to be inactivated with ethyleneimine dimer. The ability of ethyleneimine dimer to inactivate PPV in the presence of a solvent-detergent mixture was determined as follows.
A detergent stock solution (1% Tween 80, 0.3% TNBP in 0.1 M MOPS, 50 mM NaCl, pH 7.0) was prepared. A 5% dimer stock solution was prepared with 250 μl of 0.1 M MOPS, NaCl 50 mM, pH 7.0, and 12.5 μl dimer (ethyleneimine dimer, Dalton Chemical Laboratories, Inc., lot number LB-4-69A-03319). In addition, a quenching solution with a sodium thiosulphate concentration of 0.1M in 0.1 M MOPS, pH 7.0, was prepared.
(a) 9 ml 0.1 M MOPS, 50 mM NaCl, pH 7.0 was combined with 200 μl dimer stock solution. 1.0 ml PPV (PPV stock #1 filtered through 0.22μ filter) was added. The concentration of dimer in the resulting solution was 0.1%. The mixture was incubated at room temperature for a given period of time (0-3 hours). After the given time period, 1.85 ml of the solution was removed, and 0.15 ml quenching solution was added. Quenching occurred over a period of 30 minutes at room temperature. The concentration of sodium thiosulphate in the final solution was […].
(b) 9 ml detergent stock solution was combined with 1.0 ml PPV. The mixture was incubated for 0-3 hours at room temperature. A 2 ml aliquot was removed at each time point for assay. […]

[2] = test system: bacteriophage MS2; assay: Kinetics of bacteriophage MS2 infectivity inactivation; type: cell-based; conditions: 1 mM trimer, 23° C., pH 7.13, after 30 minutes of incubation (FIG. 1)
Description: Ethyleneimine trimer is known to inactivate the infectivity of bacteriophage MS2. The ability of the trimer to inactivate the infectivity of MS2 in the presence of TNBP and Tween 80 was determined as follows.
A stock of bacteriophage MS2 (ATCC number 15597-B1) was prepared according to conventional procedures (D. L. Rogerson and G. Rushizky, Analytical Biochemistry 67: 675-678 (1975)). Purification was performed by sedimentation of bacteriophage in the presence of 6% polyethylene glycol (PEG 8000, USB) as described in K. Yamamoto and B. Alberts, Virology 40: 734-744 (1970).
Purified phage were suspended in 0.15 M NaCl solution (final bacteriophage stock titer was 5×10^13 pfu/ml) and stored at 4° C. The infectivity (titer) of phage suspension was determined by conventional bilayer technique on LB agar with the F^+ strain of Escherichia coli C-3000 (ATCC number 15597).
Ethyleneimine trimer was prepared as described above. […]
Aliquots of the reaction mixture incubated at 23° C. were taken at five defined time intervals. MS2 infectivity inactivation (log S0/St, where S0 and St are the infectivity (titer) of the suspension before and t min after the start of inactivation) was determined at these five points.

Compound | titer of the virus (TCID50) after treatment [1] [logs] | MS2 infectivity inactivation (log S0/St), trimer alone compared with trimer plus solvent-detergent [2]
NCCN1CC1 [dimer, ethyleneimine dimer] | 3.2 | 
NCCNCCN1CC1 [trimer, ethyleneimine trimer] |  | essentially the same infectivity inactivation
